In publication PMC9467556, “Identification of novel pyrrolopyrimidine and pyrrolopyridine derivatives as potent ENPP1 inhibitors” (Journal of Enzyme Inhibition and Medicinal Chemistry, 2022):
Where a name gives a salt, the structure may show the parent alone.

Legend:
CYP1A2 = target: T1, CYP1A2 (Homo sapiens, UniProt P05177); assay: CYP inhibition profile; format: in vitro ADME; details: compound 10 μM
T1 sequence (P05177 1-516): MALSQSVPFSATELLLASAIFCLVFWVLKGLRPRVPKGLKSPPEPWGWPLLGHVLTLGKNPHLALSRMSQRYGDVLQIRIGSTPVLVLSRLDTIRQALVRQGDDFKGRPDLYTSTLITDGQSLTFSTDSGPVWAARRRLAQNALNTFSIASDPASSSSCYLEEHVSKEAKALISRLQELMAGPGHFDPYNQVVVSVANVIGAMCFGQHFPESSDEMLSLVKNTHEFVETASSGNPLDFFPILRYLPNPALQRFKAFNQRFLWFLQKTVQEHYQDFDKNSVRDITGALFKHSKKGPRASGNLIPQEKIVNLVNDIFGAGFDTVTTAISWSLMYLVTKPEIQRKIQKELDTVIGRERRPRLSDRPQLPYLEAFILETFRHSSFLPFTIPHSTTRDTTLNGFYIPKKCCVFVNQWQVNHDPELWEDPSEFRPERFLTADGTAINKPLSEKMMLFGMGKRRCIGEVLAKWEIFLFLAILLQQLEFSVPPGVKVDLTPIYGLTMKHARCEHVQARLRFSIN
From the text: Table 3. CYP inhibition profile. | column: % inhibition / CYP1A2

CYP2D6 = CYP2D6 (Homo sapiens, UniProt P10635); assay: CYP inhibition profile; format: in vitro ADME; details: compound 10 μM
CYP2D6, sequence (P10635 whole entry): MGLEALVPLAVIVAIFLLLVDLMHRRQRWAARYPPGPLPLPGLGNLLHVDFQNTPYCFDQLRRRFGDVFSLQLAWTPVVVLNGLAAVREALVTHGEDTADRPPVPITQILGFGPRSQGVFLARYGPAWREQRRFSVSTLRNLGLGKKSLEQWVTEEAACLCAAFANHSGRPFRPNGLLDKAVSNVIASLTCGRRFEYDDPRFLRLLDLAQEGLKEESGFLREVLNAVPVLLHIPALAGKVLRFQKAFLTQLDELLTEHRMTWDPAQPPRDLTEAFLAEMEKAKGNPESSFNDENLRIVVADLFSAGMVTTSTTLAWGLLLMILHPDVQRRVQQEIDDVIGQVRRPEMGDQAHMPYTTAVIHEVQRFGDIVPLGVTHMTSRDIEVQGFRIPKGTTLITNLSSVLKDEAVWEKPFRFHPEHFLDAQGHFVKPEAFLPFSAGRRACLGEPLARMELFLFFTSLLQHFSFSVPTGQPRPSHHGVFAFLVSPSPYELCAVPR
From the text: Table 3. CYP inhibition profile. | column: % inhibition / CYP2D6

[1] = liver microsomal stability; format: in vitro ADME, human; details: % remaining during 30 min at 1 µM
[2] = liver microsomal stability; format: in vitro ADME, rat; details: % remaining during 30 min at 1 µM
[3] = body weight in 4T1 syngeneic mouse tumour model; format: in vivo, BALB/c mice; details: 40 mg/kg orally once daily, two weeks, 4T1 tumour-bearing mice
Description: Thus, we evaluated the anti-cancer efficacy in the 4T1 syngeneic mouse tumour model to test the therapeutic potential of 18p. We postulated the marginal amount of cGAMP released by tumour could initiate the synergy effect of 18p, then administrated the compound by single-treatment[5]. After 4T1 tumour cells were implanted and grown in the flank of mice, 18p was orally administered (40 mg/kg) once daily and monitored the tumour volume and body weight of each mouse.
Figure 7. 4 × 10^5 of 4T1 cells were subcutaneously inoculated into right side flank of BLAB/c mice (n = 6). Mice were orally administrated by 18p (40 mg/kg) or vehicle by every day. (a) Tumour growth curve of 18p or vehicle. X-axis indicates days after treatment. (b) Tumour growth (%) on day 14. (c) Body weight of 18p or vehicle. X-axis indicates days after treatment. Statistics for tumour volume and tumour growth were analysed by 2way ANOVA and student t-test. *p < 0.05. **p < 0.01. Graphs are depicted by mean and SD.
The study for murine 4T1 […] was approved by the Institutional Animal Care and Use Committee (IACUC) of the Korea Institute of Science and Technology (KIST-2021–04-048). Female BALB/c mice were 8 weeks obtained from DBL (Korea). […] Tumour volume was calculated by following formula: Tumour volume (mm^3) = 0.5 × [length, (mm) × width, (mm)2].

[4] = test system: IP-10 secretion in THP-1 cells; assay: IP-10 cytokine secretion by ELISA; details: co-treatment with cGAMP, 8 h
Description: Extracellular secretion of IFN-β and IP-10 was measured by enzyme-linked immunosorbent assay (ELISA).
THP-1 cells were seeded in 96 well plate and treated with the compounds for 8 h incubation. 100 μL of cell culture supernatant was harvested and analysed using manufactural protocols.

With `CC1(CNS(N)(=O)=O)CCN(c2ncnc3[nH]ccc23)CC1` [18p, N-((4-Methyl-1-(7H-pyrrolo[2,3-d]pyrimidin-4-yl)piperidin-4-yl)methyl)methanesulfamide hydrochloride] the “% inhibition CYP1A2” value (CYP1A2) was 12.0%, the “% inhibition CYP2D6” value (CYP2D6) was 0.5% and the “Microsomal stability (%) Human” value [1] was 93%. For the same compound, the “Microsomal stability (%) Rat” value [2] was 96%, the body weight [3] was “no weight loss” and the IP-10 cytokine secretion [4] was “secreted more cytokine than with cGAMP alone”.
